Assay results published in ChEMBL document CHEMBL1124261 (J Med Chem, 1988).

How the values were obtained:
CCRF-CEM [1] = experiment: Tested for cell-growth inhibition against human leukemic lymphoblast CEM cells; format: functional, cell-based
CCRF-CEM [2] = experiment: Tested for cell-growth inhibition against human leukemic lymphoblast CEM/MTX cells; format: functional, cell-based
Mus musculus [3] = species on record: Mus musculus; experiment: (§1) Tested for inhibition against purified Folyl-polyglutamate synthase from mouse liver; settings: concentration not given here
L1210 [4] = experiment: Mean change in weight of mice infected with L1210 leukemia after 7 days after an intraperitoneal dose of 80 mg/kg; format: functional, Mus musculus
L1210 [5] = experiment: Range for the survival of mice infected with L1210 leukemia after an intraperitoneal dose of 20 mg/kg for 9 days; Range is 15-16; format: functional, Mus musculus
L1210 [6] = experiment: Range for the survival of mice infected with L1210 leukemia after an intraperitoneal dose of 40 mg/kg for 9 days; Range is 13-23; format: functional, Mus musculus
L1210 [7] = experiment: Range for the survival of mice infected with L1210 leukemia after an intraperitoneal dose of 60 mg/kg for 9 days; Range is 10-18; format: functional, Mus musculus
L1210 ( R81) = experiment: Tested for cell-growth inhibition against mouse leukemic L1210/R81 cells; format: functional, cell-based
L1210 [8] = experiment: Increase in life span of mice infected with L1210 leukemia after an intraperitoneal dose of 20 mg/kg for 9 days; format: functional; settings: Mus musculus, L1210, ip, 216 h
L1210 [9] = experiment: Increase in life span of mice infected with L1210 leukemia after an intraperitoneal dose of 40 mg/kg for 9 days; format: functional; settings: Mus musculus, L1210, ip, 216 h
L1210 [10] = experiment: Increase in life span of mice infected with L1210 leukemia after an intraperitoneal dose of 60 mg/kg for 9 days; format: functional; settings: Mus musculus, L1210, ip, 216 h
L1210 [11] = experiment: Increase in life span of mice infected with L1210 leukemia after an intraperitoneal dose of 80 mg/kg for 9 days; format: functional; settings: Mus musculus, L1210, ip, 216 h
L1210 [12] = experiment: Mean change in weight of mice infected with L1210 leukemia after 7 days after an intraperitoneal dose of 20 mg/kg; format: functional, Mus musculus
L1210 [13] = experiment: Mean change in weight of mice infected with L1210 leukemia after 7 days after an intraperitoneal dose of 40 mg/kg; format: functional, Mus musculus
L1210 [14] = experiment: Mean change in weight of mice infected with L1210 leukemia after 7 days after an intraperitoneal dose of 60 mg/kg; format: functional, Mus musculus
L1210 [15] = experiment: Tested for cell-growth inhibition against mouse leukemic L1210 cells; format: functional, cell-based
L1210 [16] = experiment: Mean survival of mice infected with L1210 leukemia after an intraperitoneal dose of 40 mg/kg for 9 days; format: functional, Mus musculus
L1210 [17] = experiment: Mean survival of mice infected with L1210 leukemia after an intraperitoneal dose of 60 mg/kg for 9 days; format: functional, Mus musculus
L1210 [18] = experiment: Range for the survival of mice infected with L1210 leukemia after an intraperitoneal dose of 80 mg/kg for 9 days; Range is 9-23; format: functional, Mus musculus
L1210 [19] = experiment: Mean survival of mice infected with L1210 leukemia after an intraperitoneal dose of 80 mg/kg for 9 days; format: functional, Mus musculus
L1210 [20] = experiment: Mean survival of mice infected with L1210 leukemia after an intraperitoneal dose of 20 mg/kg for 9 days; format: functional, Mus musculus
Dihydrofolate reductase = biological target: T1, Dihydrofolate reductase (Mus musculus, UniProt P00375); experiment: biochemical
T1 sequence (P00375 whole entry): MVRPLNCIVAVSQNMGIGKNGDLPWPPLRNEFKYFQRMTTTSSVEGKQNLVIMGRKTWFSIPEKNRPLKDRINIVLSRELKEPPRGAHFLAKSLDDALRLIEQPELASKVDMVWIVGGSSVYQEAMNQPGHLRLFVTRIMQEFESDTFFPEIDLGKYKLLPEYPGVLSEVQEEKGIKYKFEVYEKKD
Description: Tested for inhibition against purified Dihydrofolate reductase from L1210 murine leukemia cells

[21] = biological target: T2, Folylpolyglutamate synthase, mitochondrial (Mus musculus, UniProt P48760); experiment: (§2) Inhibitory constant against purified Folyl-polyglutamate synthase from mouse liver
T2 sequence (P48760 whole entry): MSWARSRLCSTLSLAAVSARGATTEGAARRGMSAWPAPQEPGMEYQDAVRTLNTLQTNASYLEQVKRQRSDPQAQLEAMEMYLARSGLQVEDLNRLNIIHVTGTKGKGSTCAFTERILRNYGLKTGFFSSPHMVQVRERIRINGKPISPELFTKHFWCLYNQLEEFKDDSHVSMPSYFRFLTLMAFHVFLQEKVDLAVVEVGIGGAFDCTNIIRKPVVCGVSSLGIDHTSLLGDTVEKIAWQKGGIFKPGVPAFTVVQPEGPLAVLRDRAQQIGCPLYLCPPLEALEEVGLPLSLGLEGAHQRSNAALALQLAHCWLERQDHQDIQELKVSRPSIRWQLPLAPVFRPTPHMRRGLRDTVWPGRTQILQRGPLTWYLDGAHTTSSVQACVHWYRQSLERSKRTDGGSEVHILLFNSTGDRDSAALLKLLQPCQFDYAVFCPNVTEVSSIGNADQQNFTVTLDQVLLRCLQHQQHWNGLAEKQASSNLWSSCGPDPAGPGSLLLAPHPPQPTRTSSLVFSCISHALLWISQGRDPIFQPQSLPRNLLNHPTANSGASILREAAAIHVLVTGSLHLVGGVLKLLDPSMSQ

[22] = biological target: T3, Folylpolyglutamate synthase, mitochondrial (Mus musculus) (UniProt P48760); experiment: as §1; settings: concentration not given here
T3 sequence (whole entry): T2 sequence (P48760 whole entry)

L1210 [23] = experiment: Range for the survival of mice infected with L1210 leukemia after an intraperitoneal dose of 20 mg/kg for 9 days; Range is 14-16; format: functional, Mus musculus
L1210 [24] = experiment: Range for the survival of mice infected with L1210 leukemia after an intraperitoneal dose of 40 mg/kg for 9 days; Range is 15-22; format: functional, Mus musculus
L1210 [25] = experiment: Range for the survival of mice infected with L1210 leukemia after an intraperitoneal dose of 60 mg/kg for 9 days; Range is 17-19; format: functional, Mus musculus
L1210 [26] = experiment: Range for the survival of mice infected with L1210 leukemia after an intraperitoneal dose of 80 mg/kg for 9 days; Range is 9-16; format: functional, Mus musculus
[27] = biological target: T4, Folylpolyglutamate synthase, mitochondrial (Homo sapiens, UniProt Q05932); experiment: Inhibitory constant against purified Folyl-polyglutamate synthase obtained from human
T4 sequence (Q05932 whole entry): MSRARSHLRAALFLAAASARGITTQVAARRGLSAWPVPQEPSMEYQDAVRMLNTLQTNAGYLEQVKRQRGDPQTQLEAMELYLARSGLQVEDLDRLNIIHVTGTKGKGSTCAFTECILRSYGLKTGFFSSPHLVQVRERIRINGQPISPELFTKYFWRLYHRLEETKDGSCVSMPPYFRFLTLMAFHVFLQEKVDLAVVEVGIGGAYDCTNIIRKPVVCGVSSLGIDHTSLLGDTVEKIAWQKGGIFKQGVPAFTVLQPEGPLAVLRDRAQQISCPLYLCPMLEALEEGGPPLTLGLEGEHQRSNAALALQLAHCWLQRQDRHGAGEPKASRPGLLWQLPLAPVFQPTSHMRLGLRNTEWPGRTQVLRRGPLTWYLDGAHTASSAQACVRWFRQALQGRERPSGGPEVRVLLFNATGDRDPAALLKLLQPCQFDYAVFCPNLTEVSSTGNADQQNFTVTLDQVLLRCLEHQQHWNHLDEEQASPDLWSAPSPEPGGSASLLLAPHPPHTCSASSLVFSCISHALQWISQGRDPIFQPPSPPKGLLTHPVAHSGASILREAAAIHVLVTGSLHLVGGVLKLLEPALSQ

[28] = biological target: T2, Folylpolyglutamate synthase, mitochondrial; experiment: Inhibitory constant against purified Folyl-polyglutamate synthase obtained from mouse liver
[29] = as §2; format: functional
L1210 [30] = experiment: Range for the survival of mice infected with L1210 leukemia after an intraperitoneal dose of 60 mg/kg for 9 days; Range is […]; format: functional, Mus musculus
L1210 [31] = experiment: Range for the survival of mice infected with L1210 leukemia after an intraperitoneal dose of 20 mg/kg for 9 days; Range is 16-19; format: functional, Mus musculus
L1210 [32] = experiment: Range for the survival of mice infected with L1210 leukemia after an intraperitoneal dose of 40 mg/kg for 9 days; Range is 14-24; format: functional, Mus musculus
L1210 [33] = experiment: Range for the survival of mice infected with L1210 leukemia after an intraperitoneal dose of 80 mg/kg for 9 days; Range is 12-18; format: functional, Mus musculus
Mus musculus [34] = species on record: Mus musculus; experiment: as §1; format: functional; settings: dose or concentration not given here
[35] = biological target: T2, Folylpolyglutamate synthase, mitochondrial; experiment: Inhibitory constant against purified Folyl-polyglutamate synthase obtained from mouse
L1210 [36] = experiment: Range for the survival of mice infected with L1210 leukemia after an intraperitoneal dose of 20 mg/kg for 9 days; Range is 13-14; format: functional, Mus musculus
L1210 [37] = experiment: Range for the survival of mice infected with L1210 leukemia after an intraperitoneal dose of 40 mg/kg for 9 days; Range is 14-16; format: functional, Mus musculus
L1210 [38] = experiment: Range for the survival of mice infected with L1210 leukemia after an intraperitoneal dose of 60 mg/kg for 9 days; Range is 12-19; format: functional, Mus musculus
[39] = biological target: T3, Folylpolyglutamate synthase, mitochondrial (Mus musculus); experiment: as §1; format: functional; settings: concentration not given here

| Structure (SMILES) | IC50 (CCRF-CEM [1]) | IC50 (CCRF-CEM [2]) | Weight change (L1210 [4]) | IC50 (L1210 ( R81)) | ILS at 20 mg/kg (L1210 [8]) | ILS at 40 mg/kg (L1210 [9]) | ILS at 60 mg/kg (L1210 [10]) | ILS at 80 mg/kg (L1210 [11]) | Weight change (L1210 [12]) | Weight change (L1210 [13]) | Weight change (L1210 [14]) | IC50 (L1210 [15]) | Survival (L1210 [16]) | Survival (L1210 [17]) | Survival (L1210 [19]) | Survival (L1210 [20]) | IC50 (Dihydrofolate reductase) | also measured |
| --- | --- | --- | --- | --- | --- | --- | --- | --- | --- | --- | --- | --- | --- | --- | --- | --- | --- | --- |
| CN(Cc1cnc2nc(N)nc(N)c2n1)c1ccc(C(=O)NC(CCCCCCCCC(=O)O)C(=O)O)cc1 (centres undefined) | 56 nM | 2200 nM | -5% | 78000 nM | 73% | 92% | 70% | 73% | 5% | 2% | 4% | 3.1 nM | 16.9 days | 15 days | 15.2 days | 15.2 days | 29 nM | inhibition (Mus musculus [3]): 49%; Range (L1210 [5]): 15 days; Range (L1210 [6]): 13 days; Range (L1210 [7]): 10 days; Range (L1210 [18]): 9 days |
| CN(Cc1cnc2nc(N)nc(N)c2n1)c1ccc(C(=O)NC(CCCCCCC(=O)O)C(=O)O)cc1 (centres undefined) | 150 nM | 5800 nM | -12% | 68000 nM | 68% | 93% | 105% | 43% | 4% | -1% | 4% | 1.2 nM | 17 days | 18 days | 12.6 days | 14.8 days | 23 nM | Ki [21]: 320000 nM; inhibition [22]: 47%; Range (L1210 [23]): 14 days; Range (L1210 [24]): 15 days; Range (L1210 [25]): 17 days; Range (L1210 [26]): 9 days |
| CN(Cc1cnc2nc(N)nc(N)c2n1)c1ccc(C(=O)N[C@@H](CCCN)C(=O)O)cc1 |  |  |  |  |  |  |  |  |  |  |  |  |  |  |  |  |  | Ki [27]: 4000 nM; Ki [28]: 20000 nM |
| Nc1nc(N)c2nc(CNc3ccc(C(=O)NC(CCCCCCCCCC(=O)O)C(=O)O)cc3)cnc2n1 (centres undefined) |  |  |  | 110000 nM |  |  |  |  |  |  |  | 0.65 nM |  |  |  |  | 81 nM | inhibition (Mus musculus [3]): 90%; Ki [29]: 24000 nM |
| Nc1nc(N)c2nc(CNc3ccc(C(=O)N[C@@H](CCC(=O)O)C(=O)O)cc3)cnc2n1 [AMINOPTERIN] |  |  |  |  |  |  |  |  |  |  |  |  |  |  |  |  | 25 nM |  |
| CN(Cc1cnc2nc(N)nc(N)c2n1)c1ccc(C(=O)NC(CCCCCCCCCC(=O)O)C(=O)O)cc1 (centres undefined) | 16 nM | 10000 nM | 2% | 58000 nM | 98% | 95% | 100% | 73% | 6% | 3% | 5% | 7.1 nM | 17.2 days | 17.6 days | 15.2 days | 17.4 days | 34 nM | Range (L1210 [30]): 15 days; Range (L1210 [31]): 16 days; Range (L1210 [32]): 14 days; Range (L1210 [33]): 12 days; inhibition (Mus musculus [34]): 53% |
| NCCC[C@H](NC(=O)c1ccc(NCc2cnc3nc(N)nc(N)c3n2)cc1)C(=O)O |  |  |  |  |  |  |  |  |  |  |  |  |  |  |  |  |  | Ki [27]: 300 nM; Ki [35]: 300 nM |
| CN(Cc1cnc2nc(N)nc(N)c2n1)c1ccc(C(=O)NC(CCCCCCCC(=O)O)C(=O)O)cc1 (centres undefined) | 62 nM | 1000 nM | 3% | 73000 nM | 55% | 66% | 74% | 73% | 7% | 6% | 6% | 4.2 nM | 14.6 days | 15.3 days | 15.2 days | 13.6 days | 32 nM | Range (L1210 [36]): 13 days; Range (L1210 [37]): 14 days; Range (L1210 [38]): 12 days; Range (L1210 [33]): 12 days; inhibition [39]: 43% |
